SMILES strings stand for the structures. Like-named read-outs stand apart in the source and are kept apart here.

The text below walks through data of article PMC7026418, “The kinase polypharmacology landscape of clinical PARP inhibitors” (Scientific Reports, 2020).

Common to all, as to experiment: biochemical
Common to all, as to parameters: DiscoveRx KINOMEscan active site-directed competition binding; percent of control kinase bound to immobilised ligand

For test [1], the target named is T1, CAMK1B (Homo sapiens, UniProt Q6P2M8).
T1 construct: gene PNCK

Test [2] addresses T2, DDR2 (Homo sapiens, UniProt Q16832).
T2 sequence (Q16832 1-855): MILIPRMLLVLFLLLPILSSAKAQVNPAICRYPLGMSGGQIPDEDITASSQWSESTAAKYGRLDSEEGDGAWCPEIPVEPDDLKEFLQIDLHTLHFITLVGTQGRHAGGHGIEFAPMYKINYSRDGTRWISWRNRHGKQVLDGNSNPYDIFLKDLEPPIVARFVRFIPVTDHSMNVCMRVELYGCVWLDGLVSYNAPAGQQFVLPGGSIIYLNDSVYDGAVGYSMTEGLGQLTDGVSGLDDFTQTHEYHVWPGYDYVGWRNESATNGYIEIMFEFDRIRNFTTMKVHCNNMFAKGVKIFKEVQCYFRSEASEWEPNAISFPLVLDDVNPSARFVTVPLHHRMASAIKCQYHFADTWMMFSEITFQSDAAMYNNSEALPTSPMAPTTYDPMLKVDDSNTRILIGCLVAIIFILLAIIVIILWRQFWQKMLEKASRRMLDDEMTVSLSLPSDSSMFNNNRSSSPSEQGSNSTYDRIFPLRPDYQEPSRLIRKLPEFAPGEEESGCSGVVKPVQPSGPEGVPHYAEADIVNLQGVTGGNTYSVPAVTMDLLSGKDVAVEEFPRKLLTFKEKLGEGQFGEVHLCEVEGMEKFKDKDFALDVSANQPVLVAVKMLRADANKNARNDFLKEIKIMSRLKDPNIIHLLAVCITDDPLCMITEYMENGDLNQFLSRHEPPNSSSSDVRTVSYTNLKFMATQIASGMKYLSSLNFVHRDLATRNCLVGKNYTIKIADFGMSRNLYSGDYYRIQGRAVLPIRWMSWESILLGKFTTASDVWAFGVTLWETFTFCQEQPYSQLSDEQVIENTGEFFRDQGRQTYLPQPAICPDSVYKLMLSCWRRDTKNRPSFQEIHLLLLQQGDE

Test [3] has as its target T3, ERK3 (Homo sapiens, UniProt Q16659).
T3 construct: gene MAPK6

The target in test [4] is T4, FLT3(ITD,F691L) (Homo sapiens, UniProt P36888, F691L/ITD).
T4 sequence (P36888 564-993 F691L): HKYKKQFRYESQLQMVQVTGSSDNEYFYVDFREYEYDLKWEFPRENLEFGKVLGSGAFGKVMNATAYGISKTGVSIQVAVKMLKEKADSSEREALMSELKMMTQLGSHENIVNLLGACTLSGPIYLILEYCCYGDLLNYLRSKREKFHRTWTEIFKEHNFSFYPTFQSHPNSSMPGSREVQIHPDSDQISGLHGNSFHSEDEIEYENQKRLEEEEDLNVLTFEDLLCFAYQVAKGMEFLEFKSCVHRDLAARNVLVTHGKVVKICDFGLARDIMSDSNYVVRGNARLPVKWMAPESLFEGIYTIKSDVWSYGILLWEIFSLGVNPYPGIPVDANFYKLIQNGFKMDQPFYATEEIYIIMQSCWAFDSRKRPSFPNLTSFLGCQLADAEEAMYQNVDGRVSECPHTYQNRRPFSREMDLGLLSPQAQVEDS

Test [5] has as its target T5, HPK1 (Homo sapiens, UniProt Q92918).
T5 construct: gene MAP4K1

Test [6] concerns the target KIT(A829P) (Homo sapiens, UniProt P10721, A829P).
Test [7] addresses MARK2 (Homo sapiens, UniProt Q7KZI7).
For test [8], the target named is T6, PKAC-beta (Homo sapiens, UniProt P22694).
T6 construct: gene PRKACB

Test [9] deals with STK16 (Homo sapiens, UniProt O75716).
Test [10] addresses T7, ULK3 (Homo sapiens, UniProt Q6PHR2).
T7 sequence (Q6PHR2 1-472): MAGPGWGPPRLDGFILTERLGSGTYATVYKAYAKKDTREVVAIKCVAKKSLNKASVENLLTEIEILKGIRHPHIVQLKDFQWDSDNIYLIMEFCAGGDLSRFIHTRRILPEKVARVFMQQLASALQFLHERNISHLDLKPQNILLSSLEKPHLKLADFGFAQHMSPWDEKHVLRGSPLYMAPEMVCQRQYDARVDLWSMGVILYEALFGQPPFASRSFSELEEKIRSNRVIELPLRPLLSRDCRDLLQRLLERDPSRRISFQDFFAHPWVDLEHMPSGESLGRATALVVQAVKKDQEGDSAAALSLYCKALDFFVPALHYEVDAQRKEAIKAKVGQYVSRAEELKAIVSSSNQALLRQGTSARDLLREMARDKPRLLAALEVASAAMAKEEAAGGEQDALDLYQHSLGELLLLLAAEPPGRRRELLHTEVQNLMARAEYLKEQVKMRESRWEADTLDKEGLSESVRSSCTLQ

The mark [11] stands for this setting: read-out: Rucaparib / %Ctrl @ 10000nM, binding competition, % of control.
[12] abbreviates: read-out: Talazoparib (BMN 673) / %Ctrl @ 10000nM.
Setting [13] is: read-out: Niraparib (MK-4827) / %Ctrl @ 10000nM.
Where [14] appears, read: read-out: Olaparib / %Ctrl @ 10000nM.

Chain of MARK2 (Q7KZI7 whole entry): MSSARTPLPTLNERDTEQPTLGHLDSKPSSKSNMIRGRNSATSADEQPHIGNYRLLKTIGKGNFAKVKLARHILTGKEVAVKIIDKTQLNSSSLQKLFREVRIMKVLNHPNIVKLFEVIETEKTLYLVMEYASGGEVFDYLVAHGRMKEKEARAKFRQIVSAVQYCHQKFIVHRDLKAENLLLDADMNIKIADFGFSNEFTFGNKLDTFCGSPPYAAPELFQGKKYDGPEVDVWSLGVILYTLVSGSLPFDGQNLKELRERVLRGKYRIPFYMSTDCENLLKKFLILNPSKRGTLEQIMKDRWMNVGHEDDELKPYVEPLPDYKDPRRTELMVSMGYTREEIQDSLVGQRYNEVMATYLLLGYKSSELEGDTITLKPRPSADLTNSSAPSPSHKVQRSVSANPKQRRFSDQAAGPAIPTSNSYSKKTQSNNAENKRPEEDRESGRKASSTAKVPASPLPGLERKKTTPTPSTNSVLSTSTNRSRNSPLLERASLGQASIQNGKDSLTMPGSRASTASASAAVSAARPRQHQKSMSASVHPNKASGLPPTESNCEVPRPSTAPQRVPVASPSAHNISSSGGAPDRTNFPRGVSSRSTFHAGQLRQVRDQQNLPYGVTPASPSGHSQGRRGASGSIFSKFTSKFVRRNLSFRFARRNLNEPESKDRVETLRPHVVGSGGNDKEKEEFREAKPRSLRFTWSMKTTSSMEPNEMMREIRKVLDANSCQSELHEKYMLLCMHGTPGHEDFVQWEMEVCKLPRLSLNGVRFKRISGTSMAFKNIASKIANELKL
T1 sequence (Q6P2M8 whole entry): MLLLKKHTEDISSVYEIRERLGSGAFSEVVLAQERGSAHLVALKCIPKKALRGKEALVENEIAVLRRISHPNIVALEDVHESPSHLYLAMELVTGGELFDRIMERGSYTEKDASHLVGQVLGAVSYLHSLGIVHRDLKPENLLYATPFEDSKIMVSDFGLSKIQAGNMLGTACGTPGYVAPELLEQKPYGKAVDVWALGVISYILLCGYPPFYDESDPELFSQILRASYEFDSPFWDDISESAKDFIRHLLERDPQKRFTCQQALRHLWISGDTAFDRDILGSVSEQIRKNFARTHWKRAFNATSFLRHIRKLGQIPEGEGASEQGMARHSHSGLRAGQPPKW
T5 sequence (Q92918 whole entry): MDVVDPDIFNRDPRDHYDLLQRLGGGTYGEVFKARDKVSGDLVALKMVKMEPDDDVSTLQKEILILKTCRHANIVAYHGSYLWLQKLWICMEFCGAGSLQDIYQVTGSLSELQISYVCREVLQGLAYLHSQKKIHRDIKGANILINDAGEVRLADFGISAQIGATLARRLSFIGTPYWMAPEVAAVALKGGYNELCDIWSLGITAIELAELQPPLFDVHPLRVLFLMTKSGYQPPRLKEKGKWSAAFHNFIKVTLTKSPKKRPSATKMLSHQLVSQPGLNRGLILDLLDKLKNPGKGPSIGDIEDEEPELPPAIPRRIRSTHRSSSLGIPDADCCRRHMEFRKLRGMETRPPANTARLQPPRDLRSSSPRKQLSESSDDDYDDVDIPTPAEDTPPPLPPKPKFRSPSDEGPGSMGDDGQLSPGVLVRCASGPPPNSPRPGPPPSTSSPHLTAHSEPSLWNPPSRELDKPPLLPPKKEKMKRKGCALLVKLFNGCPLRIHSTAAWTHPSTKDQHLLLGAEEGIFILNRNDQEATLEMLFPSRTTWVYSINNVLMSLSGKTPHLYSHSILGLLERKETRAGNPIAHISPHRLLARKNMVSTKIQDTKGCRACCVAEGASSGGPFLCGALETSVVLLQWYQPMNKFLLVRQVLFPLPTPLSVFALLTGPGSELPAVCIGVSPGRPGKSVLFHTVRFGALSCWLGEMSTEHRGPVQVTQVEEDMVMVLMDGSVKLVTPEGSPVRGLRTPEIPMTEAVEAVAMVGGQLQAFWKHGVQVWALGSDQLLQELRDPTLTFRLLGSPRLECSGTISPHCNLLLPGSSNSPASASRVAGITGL
Chain of STK16 (O75716 whole entry): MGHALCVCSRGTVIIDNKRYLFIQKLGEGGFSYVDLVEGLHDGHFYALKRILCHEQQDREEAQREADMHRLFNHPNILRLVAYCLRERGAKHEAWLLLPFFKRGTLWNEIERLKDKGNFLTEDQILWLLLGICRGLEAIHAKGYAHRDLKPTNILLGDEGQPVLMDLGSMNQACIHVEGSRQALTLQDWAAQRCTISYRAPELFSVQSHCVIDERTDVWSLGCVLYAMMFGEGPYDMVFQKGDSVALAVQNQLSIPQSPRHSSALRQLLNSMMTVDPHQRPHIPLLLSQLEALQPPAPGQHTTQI
Chain of KIT(A829P) (P10721 whole entry A829P): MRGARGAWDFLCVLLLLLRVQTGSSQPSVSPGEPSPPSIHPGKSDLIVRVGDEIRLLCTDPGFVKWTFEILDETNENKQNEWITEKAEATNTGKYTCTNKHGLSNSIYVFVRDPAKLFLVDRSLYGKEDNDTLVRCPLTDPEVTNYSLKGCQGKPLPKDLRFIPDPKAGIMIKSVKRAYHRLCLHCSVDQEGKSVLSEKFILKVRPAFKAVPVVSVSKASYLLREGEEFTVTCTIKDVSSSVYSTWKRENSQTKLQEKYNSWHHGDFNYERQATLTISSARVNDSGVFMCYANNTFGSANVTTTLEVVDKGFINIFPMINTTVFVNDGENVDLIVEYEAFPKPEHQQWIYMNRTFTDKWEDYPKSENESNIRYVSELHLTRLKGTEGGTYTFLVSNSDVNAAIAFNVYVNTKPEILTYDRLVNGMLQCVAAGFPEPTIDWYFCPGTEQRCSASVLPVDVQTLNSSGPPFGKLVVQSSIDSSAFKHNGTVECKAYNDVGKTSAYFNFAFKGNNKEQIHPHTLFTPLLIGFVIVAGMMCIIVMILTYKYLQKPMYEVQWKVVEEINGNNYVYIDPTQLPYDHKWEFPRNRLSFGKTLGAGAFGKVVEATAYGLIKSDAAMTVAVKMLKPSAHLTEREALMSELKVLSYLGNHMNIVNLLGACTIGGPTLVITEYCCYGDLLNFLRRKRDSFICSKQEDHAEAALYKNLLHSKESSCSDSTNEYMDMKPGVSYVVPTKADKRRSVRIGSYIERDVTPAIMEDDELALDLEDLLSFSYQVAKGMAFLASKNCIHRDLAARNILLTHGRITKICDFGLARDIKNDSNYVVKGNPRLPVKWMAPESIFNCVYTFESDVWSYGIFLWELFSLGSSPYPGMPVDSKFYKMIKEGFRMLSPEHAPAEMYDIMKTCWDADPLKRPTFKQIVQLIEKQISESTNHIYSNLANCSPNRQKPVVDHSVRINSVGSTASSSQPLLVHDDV
T3 sequence (Q16659 whole entry): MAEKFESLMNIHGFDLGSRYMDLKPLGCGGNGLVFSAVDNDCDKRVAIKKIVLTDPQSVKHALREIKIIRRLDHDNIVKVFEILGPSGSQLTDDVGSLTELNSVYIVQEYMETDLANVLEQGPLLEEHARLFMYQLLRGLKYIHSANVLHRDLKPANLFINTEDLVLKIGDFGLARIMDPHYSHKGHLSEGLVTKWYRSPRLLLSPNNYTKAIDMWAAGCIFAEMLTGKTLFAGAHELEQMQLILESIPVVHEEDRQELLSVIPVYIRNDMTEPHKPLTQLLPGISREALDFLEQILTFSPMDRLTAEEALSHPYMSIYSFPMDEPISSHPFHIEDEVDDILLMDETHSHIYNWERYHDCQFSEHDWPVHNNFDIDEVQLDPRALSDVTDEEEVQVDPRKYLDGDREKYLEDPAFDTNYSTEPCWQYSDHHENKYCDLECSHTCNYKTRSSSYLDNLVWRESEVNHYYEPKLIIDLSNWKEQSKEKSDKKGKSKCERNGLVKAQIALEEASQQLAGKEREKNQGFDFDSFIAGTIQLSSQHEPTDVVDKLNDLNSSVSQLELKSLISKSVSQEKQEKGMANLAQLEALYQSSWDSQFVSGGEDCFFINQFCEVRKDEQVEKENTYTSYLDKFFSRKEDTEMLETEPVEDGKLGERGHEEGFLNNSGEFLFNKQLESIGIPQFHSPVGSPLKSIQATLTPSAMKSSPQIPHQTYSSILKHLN

For the compound `CNCc1ccc(-c2[nH]c3cc(F)cc4c3c2CCNC4=O)cc1` [Rucaparib], the percent of control binding at 10 µM in test [1] (setting [11]) was 100%; in test [2] (setting [11]) it was 89%; in [3] (setting [11]), 90%; in [5] (setting [11]) it was 96%; in test [6] (setting [11]) it was 88%; in [7] (setting [11]), 92%. The percent of control binding at 10 µM was determined as 99% in test [8] (setting [11]), 100% in test [9] (setting [11]) and 70% in [10] (setting [11]). Further, the “Rucaparib / %Ctrl @ 10000nM” value in test [4] (binding competition, % of control) was 26%.
As for `Cn1ncnc1[C@H]1c2n[nH]c(=O)c3cc(F)cc(c23)N[C@@H]1c1ccc(F)cc1` [Talazoparib], the percent of control binding at 10 µM is 100% in [1] (setting [12]); 100% in test [2] (setting [12]); 100% in test [3] (setting [12]); 100% in [4] (setting [12]); 85% in test [5] (setting [12]); 100% in test [6] (setting [12]). For the same compound, the percent of control binding at 10 µM came out at 100% in test [7] (setting [12]), 56% in [8] (setting [12]), 90% in [9] (setting [12]) and 84% in test [10] (setting [12]).
`NC(=O)c1cccc2cn(-c3ccc([C@@H]4CCCNC4)cc3)nc12` [Niraparib]: the percent of control binding at 10 µM is 94% in test [1] (setting [13]); 90% in test [2] (setting [13]); 81% in test [3] (setting [13]); 42% in test [4] (setting [13]); 100% in test [5] (setting [13]); 98% in test [6] (setting [13]). Also, the percent of control binding at 10 µM in test [7] (setting [13]) stood at 75%; in test [8] (setting [13]) it was 96%; in [9] (setting [13]), 93%; in [10] (setting [13]), 100%.
For `O=C(c1cc(Cc2n[nH]c(=O)c3ccccc23)ccc1F)N1CCN(C(=O)C2CC2)CC1` [Olaparib], the percent of control binding at 10 µM in test [1] (setting [14]) stood at 97%; in [2] (setting [14]) it was 92%; in test [3] (setting [14]), 95%; in test [4] (setting [14]), 84%; in test [5] (setting [14]), 94%; in [7] (setting [14]), 100%. In addition, the figures for the percent of control binding at 10 µM in [8] (setting [14]), in test [9] (setting [14]) and in [10] (setting [14]) were 100%, 83% and 80%, respectively.
